≈ marks a conversion by molar mass, not a printed value.
Columns and labels:
[1] = test system: KB; test: Cytotoxicity against human KB cells; assay type: functional; conditions: read-out: ED50 (the source's name)
[2] = test system: P388; test: Cytotoxicity against mouse P388 cells; assay type: functional; conditions: read-out: ED50 (the source's name)

| Compound | EC50 [1] [mg/L] | EC50 [2] [mg/L] |
| --- | --- | --- |
| CO[C@H]1[C@@H](OC)C[C@H](C)[C@@H](OC)c2cc(O)cc(c2O)NC(=O)/C(C)=C/C=C\[C@H](OC)[C@@H](OC(N)=O)/C(C)=C/[C@@H]1C [DIHYDRO-HERBIMYCIN A] | 0.3 (≈ 0.52 µM) | 0.022 (≈ 0.0381 µM) |
| CO[C@H]1/C=C\C=C(/C)C(=O)Nc2cc(O)cc(c2O)C[C@@H](C)C[C@H](OC)[C@H](O)[C@@H](C)/C=C(\C)[C@@H]1OC(N)=O | 3.49 (≈ 6.55 µM) | 0.34 (≈ 0.638 µM) |
| CO[C@H]1/C=C\C=C(/C)C(=O)NC2=CC(=O)C=C(C2=O)[C@H](OC)[C@@H](C)C[C@H](OC)[C@H](O)[C@@H](C)/C=C(\C)[C@@H]1OC(N)=O [HERBIMYCIN C] | 0.12 (≈ 0.214 µM) | 0.17 (≈ 0.303 µM) |
| CO[C@H]1[C@@H](OC)C[C@H](C)[C@@H](OC)C2=CC(=O)C=C(NC(=O)/C(C)=C/C=C/[C@H](OC)[C@@H](OC(N)=O)/C(C)=C/[C@@H]1C)C2=O [HERBIMYCIN] | 0.12 (≈ 0.209 µM) | 0.0051 (≈ 0.00887 µM) |

Reference: ChEMBL document CHEMBL1151121, “1H-nmr analysis of herbimycins and dihydro-herbimycins” (1988)
